{
  "source": "paper PMC5612656",
  "about": "“In vitro and in vivo effects of 2,4 diaminoquinazoline inhibitors of the decapping scavenger enzyme DcpS: Context-specific modulation of SMN transcript levels” (PLoS ONE, 2017)",
  "key": {"[1]": {"test_system": "SMN transcripts in SMA-derived lymphoblasts", "assay": "SMN transcripts by ddPCR in SMA-derived lymphoblasts", "type": "cell-based, human"}, "SMN protein [2]": {"test_system": "SMN protein", "assay": "SMN protein by Western blot in SMA cells (fibroblasts, lymphoblasts, iPS-derived neural progenitor cells)", "type": "cell-based, human", "settings": "24 hours to 7 days", "experimental": "Lysates were incubated at 95°C for 5 minutes and cleared at 14,000 RPM for 15 minutes. Cleared lysates were quantified by BCA assay. A total of 5 μg of each lysate was mixed with NuPage LDS sample buffer with […] and loaded and separated on a NuPage 10% Bis-Tris gel. Proteins were transferred to 0.2 micron nitrocellulose using the BioRad Turbo Transfer system."}, "N2a cells miRNA": {"test_system": "N2a cells miRNA", "assay": "miRNA RNA-Seq of N2a cells", "type": "cell-based, mouse", "settings": "approximately 700 detectable", "experimental": "Cells were then pelleted and lysed in RLT and the RNA was purified according to the protocol for the Qiagen miRNeasy kit to separate and enrich small RNA and large (>200 nt) fractions separately. […] RNA quality was also validated using qPCR for DcpS responsive genes. RNA fractions were used for cDNA library preparation which was performed using Truseq mRNA v2 reagents or TailorMix miRNA reagents (RS-122-2101 Illumina, San Diego CA, USA and TM302 […], Fremont CA, USA). Libraries were run on a Nextseq 500 (Illumina) using a paired-end run (2x75bp) generating ~60 million reads per library for the mRNA-seq and 1x75bp generating ~5 million reads per library for the miRNA-seq. […] The reads were first mapped to mouse miRNAs using Bowtie without allowing for mismatches. Instead of discarding the remaining reads, we explored the possibilities of RNA editing to include potential isomiRs. These reads were mapped to miRNAs that have at most 1 base mismatch, a substitution at the 5' or 3' ends, or have 1 or 2 extra bases at either ends. […] Reads mapping to protein coding exons and other small RNAs were removed prior to mapping to miRNAs. […] We merged the counts of reads identical to a miR and those mapping to isomeric forms as they are found to have identical/very similar functions. […] The counts were normalized and analyzed using EdgeR [19] packages in R-Bioconductor."}, "2B/- SMA mice": {"test_system": "2B/- SMA mice", "assay": "Survival and body weight study in 2B/- SMA mice", "type": "in vivo, mouse"}, "[3]": {"test_system": "Smn transcripts in spinal cord, skeletal muscle, liver", "assay": "Smn transcripts in mouse tissues by ddPCR", "type": "in vivo", "description": "(§1) At P1, pups were counted."}, "Smn protein [4]": {"test_system": "Smn protein", "assay": "Smn protein in mouse tissues by Western blot", "type": "in vivo", "settings": "2B/- SMA mice", "description": "as §1"}, "SMA Δ7 mice": {"test_system": "SMA Δ7 mice", "settings": "SMAΔ7 mice; cited from earlier work"}, "[5]": {"assay": "Plasma drug levels after P4-P16 dosing", "settings": "FVB/N background, mouse, ip", "source_text": "Personnel conducting studies followed the approved standard operating procedures for daily monitoring, dosing, weaning and euthanasia according to the approved study protocol. […] Line maintenance was maintained by interbreeding of the congenic line and every 4th generation mice were outbred to wild type FBV/N mice (jax # 001800) to reduce the possibility of new mutations within the line. Smn 2B mice were internally developed and maintained in the DiDonato laboratory. To generate the SMA mice used in this study an intercross between Smn 2B/2B and Smn +/- mice was performed. This generated litters in which 50% of the offspring were control (2B/+) and 50% SMA (2B/-). The day of birth was considered to be P0. If pups were born after 3pm, the following day was considered P0. At P1, pups were counted. If greater than 10 pups to a cage, pups were randomly chosen and moved to another cage to increase litter size, culled to reduce litter size or genotyped at P1 and culled at P2 to reduce litter size to 10 or fewer pups. Thereafter, no culling of pups was performed for drug studies. Individual mice were genotyped from DNA obtained from tail snips by polymerase chain reaction (PCR). All mice were weaned at P21 and separated into male and female cages. […] For the PK single dose studies a single ip injection was used. […] Body weights were recorded daily in the AM and dosing volume was adjusted accordingly. […]"}},
  "data": [
    {"smiles": "Nc1nc(N)c2c(OCC3CCN(Cc4c(Cl)cccc4Cl)CC3)cccc2n1", "note": "[RG3039]", "values": [
      {"measurement": "changes in SMN transcripts", "setting": "[1]; active DAQ-DcpSi vs 7-methyl analogues", "result": "modest changes in SMN transcripts"},
      {"measurement": "SMNΔ7 transcripts", "setting": "[1]; example experiment of Fig 5", "result": "no decrease in SMNΔ7 transcripts"},
      {"measurement": "SMN protein", "setting": "SMN protein [2]", "result": "in no experimental condition tested were we able to detect an increase in SMN protein"},
      {"measurement": "miR species differentially regulated by RG3039 but not PF-06802336", "setting": "N2a cells miRNA", "result": "no miR species"},
      {"measurement": "effect on survival, RG3039 compared to PF-06738066", "setting": "2B/- SMA mice; P < 0.05 by either test", "result": "slightly greater effect on survival than PF-06738066"},
      {"measurement": "effect on survival of SMA mice compared to vehicle-treated SMA mice", "setting": "2B/- SMA mice; b.i.d. i.p. P4-P20, RG3039 6 mg/kg, PF-06738066 10 mg/kg, P < 0.0001 Mantel-Cox or Gehan-Breslow-Wilcoxon", "result": "statistically significant beneficial effect on survival"},
      {"measurement": "Smn transcripts (exons 5/6, exons 7/8, SmnΔ7) in tissues", "setting": "[3]; 2B/- SMA mice, P4-P16 BID i.p.", "result": "significant increases in Smn transcripts in all tissues"},
      {"measurement": "SmnΔ7 transcripts in spinal cord", "setting": "[3]; 2B/- mice", "result": "trended to increase"},
      {"measurement": "Smn protein levels in muscle", "setting": "Smn protein [4]", "result": "no statistically significant change"},
      {"measurement": "Smn protein levels in spinal cord", "setting": "Smn protein [4]", "result": "no statistically significant change"},
      {"measurement": "SMN protein or snRNP assembly", "setting": "SMA Δ7 mice", "result": "no detectable change"},
      {"measurement": "full length and Δ7 SMN transcripts", "setting": "SMA Δ7 mice", "result": "modest but statistically significant elevations"},
      {"measurement": "concentration at 12 h", "setting": "[5]", "result": "4.24 ± 1.13", "unit": "nM"}
    ]}
  ]
}
